“And” between values parts separate entries of the source, which are not always exact repeats. Equal values may be shown once.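 Results reflect a 48-hour exposure of cells in 96-well plates to compound at five concentrations. The concentration for 50% growth inhibition is given as GI50. Definition used: TGI = concentration required for complete inhibition of growth.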
What was measured:
Test in all cases: DTP human tumour cell line panel, 48 h
786-0 renal = test system: 786-0 renal
SF-268 CNS = test system: SF-268 CNS
HT29 colon = test system: HT29 colon
K-562 leukemia = test system: K-562 leukemia
MDA-MB-435 = test system: MDA-MB-435
HCC-2998 colon = test system: HCC-2998 colon
A549 NSCLC = test system: A549 NSCLC
U251 CNS = test system: U251 CNS
CAKI-1 renal = test system: CAKI-1 renal
IGROV1 ovarian = test system: IGROV1 ovarian

Row | SMILES | GI50 (786-0 renal) [µM] | TGI (786-0 renal) | GI50 (SF-268 CNS) [µM] | TGI (SF-268 CNS) | GI50 (HT29 colon) [µM] | TGI (HT29 colon) | GI50 (K-562 leukemia) [µM] | TGI (K-562 leukemia) | GI50 (MDA-MB-435) | TGI (MDA-MB-435) [µM] | GI50 (HCC-2998 colon) [µM] | TGI (HCC-2998 colon) | GI50 (A549 NSCLC) [µM] | TGI (A549 NSCLC) | GI50 (U251 CNS) [µM] | TGI (U251 CNS) | GI50 (CAKI-1 renal) | TGI (CAKI-1 renal) | GI50 (IGROV1 ovarian) [µM] | TGI (IGROV1 ovarian) [µM]
1 | Cc1cc(C)nc(NC(N)=NCCc2ccccc2)n1 | 4.86 | > 100 µM | 3.4 | 41.9 µM | 3.02 | > 100 µM | 3.56 | > 100 µM | 1.52 µM | 4.49 | 8.41 | 30.6 µM | 3.03 | 89 µM | 3.15 | > 100 µM | 19.4 µM | 97.5 µM |  | 
2 | Cc1ccc(C(=O)N(CCCN)[C@@H](c2nc3cc(Cl)ccc3c(=O)n2Cc2ccccc2)C(C)C)cc1 | < 0.01 | 2.08 µM and 1.98 µM |  | 1.97 µM and 2.35 µM | < 0.01 | 1.03 µM and 1.49 µM | < 0.01 | 1.67 µM and 1.23 µM | < 0.01 µM | < 0.01 | < 0.01 | 1.23 µM and 0.912 µM | < 0.01 | 1.4 µM and 1.71 µM | < 0.01 | 1.19 µM and 1.53 µM |  | 2.33 µM and 1.94 µM | < 0.0336 | 2.09
3 | Nc1ccn(C2OC(CO)C(O)C2F)c(=O)n1 (stereo unspecified) | > 5000 | > 5000 µM | > 5000 | > 5000 µM | > 5000 | > 5000 µM | > 5000 | > 5000 µM | 867 µM and > 5000 µM | > 5000 | > 5000 | > 5000 µM | > 5000 | > 5000 µM | > 5000 | > 5000 µM | 582 µM and > 5000 µM | > 5000 µM | > 5000 | > 5000
4 | CN(C)CCCOc1ccccc1NC1=C(Cl)C(=O)C(Nc2ccccc2OCCCN(C)C)=C(Cl)C1=O | 0.661 | 1.91 µM | 1.03 | 2.61 µM | 0.253 | 0.584 µM | 0.274 | 0.793 µM | 0.636 µM | 1.44 | 0.604 | 1.31 µM | 1.51 | 2.94 µM | 0.611 | 1.3 µM | 1.07 µM | 2.27 µM | 0.355 | 0.969
5 | C=C(CNC(=O)Nc1ccc(-c2ccccc2)cc1)c1ccc(C(=O)Nc2ccccc2N)cc1 | > 100 | > 100 µM | > 100 | > 100 µM | > 100 | > 100 µM | 40.6 | > 100 µM | 89.8 µM | > 100 | > 100 | > 100 µM | > 100 | > 100 µM | 47.9 | > 100 µM | > 100 µM | > 100 µM |  | 
6 | O=P([O-])(O)OP(=O)([O-])O.[NH-][C@H]1CCCC[C@@H]1[NH-].[OH-].[OH-].[Pt+4] | 29.5 | 76.2 µM | 20.9 | 46.8 µM | 59.6 | > 100 µM | 92.9 | > 100 µM | 31.2 µM | > 100 | 28.8 | 85.2 µM |  |  | 17.2 | 33.8 µM | 34.4 µM | > 100 µM | 21.8 | 60.4
7 | N#Cc1cc(C#N)c(Cl)nc1N |  | > 10 µM |  | > 10 µM |  | > 10 µM |  | > 10 µM |  | > 10 |  | > 10 µM |  | > 10 µM |  | > 10 µM |  |  |  | > 10

Source: PubChem BioAssay (NCI)
